Like-named read-outs stand apart in the source and are kept apart here.
Experiments:
HIV-1 PR = details: cleavage sites of viruses other than HTLV, retrieved from the literature, ref [28]; cited from earlier work
Text: (§1) Table 3 Catalytic efficiencies of HTLV PRs on different substrates representing natural cleavage site sequences of viruses other than HTLV. Cleavage sites are labelled by an asterisk within the sequences. Abbreviations: MA (matrix), CA (capsid), NC (nucleocapsid), TF (transframe), RT (reverse-transcriptase), and IN (integrase). | column: kcat/KM (mM^−1 s^−1) / HIV-1 PR ^1

HTLV-3 PR = HTLV-3 PR (Human T-cell leukemia virus 3, UniProt Q4U0X6); assay: Protease activity assay with oligopeptide substrates (RP-HPLC), HTLV-3 PR; format: biochemical, human T-cell leukemia virus type 3; design: made in house; host or cells: E. coli BL21(DE3), pET11a; details: pH 5.6, 37 °C
Text: (§2) The oligopeptides representing the naturally occurring matrix/capsid (MA/CA), capsid/nucleocapsid (CA/NC), trans-frame protein/protease (TF1/PR), and PR/p1 cleavage sites of HTLV-1, -2, and -3 PRs were used as substrates. The oligopeptide substrates representing the natural sequences of HTLV PRs were ordered from BioBasic, while the oligopeptide substrates representing naturally occurring cleavage sites of various viruses, or the wild-type, the shortened, and the P4, P3, P2, P1, or P1′ variants of HTLV-1 MA/CA cleavage site (KTKVL*VVQPK) were in-house stocks. All peptides were dissolved in distilled water.
(§3) For kinetic measurements, we applied 10 µL 2× incubation buffer (0.5 M K3PO4, 4 M NaCl, 10 v/v% glycerol, 10 mM DTT, pH 5.6), 5 µL of HTLV-1, HTLV-2, or HTLV-3 PR (final concentration of the active enzyme was in 0.1–34.4 nM), and 0.5–5 µL oligopeptide substrate representing HTLV PR natural cleavage sites (0.05–1.10 mM final concentration). The final volume of the reaction mixture was set to 20 µL with distilled water if it was necessary. The reactions were initiated by the addition of the enzyme, were incubated at 37 °C for 0.5–4 h, and stopped by the addition of 180 µL 1 v/v% TFA. For substrates representing natural cleavage sites of retroviruses other than HTLV-1, -2, and -3 PRs (HIV-1, equine infectious anemia virus (EIAV), Rous sarcoma virus (RSV), mouse mammary tumor virus (MMTV), Mason-Pfizer monkey virus (MPMV), and murine leukemia virus (MuLV) and BLV) in a longer incubation time (24 h) was also applied. The cleavage products were separated by using a Nova-Pack C18 RP-HPLC column (3.9 mm × 150 mm, Waters Associates Inc, Milford, MA, USA) on HPLC (Merck-Hitachi LaChrom). Water-acetonitrile gradient (0–100%) was used for separation in the presence of 0.05% TFA at 2 mL/min flow rate. The kinetic parameters were determined by fitting the data—obtained at less than 20% substrate hydrolysis—to the Michaelis–Menten equation. The Gaussian equation was used to determine pH optimum and exponential growth equation for determination of optimal NaCl concentration, while linear regression was applied to plot the dependence of enzyme activity on temperature. Prism8 software (GraphPad Software Inc., San Diego, CA, USA) was used for evaluation. The kcat/KM catalytic constants were calculated based on the active enzyme concentration, which was determined by active site titration using the method described previously.

HTLV-1 PR = details: cited from earlier work
Text: as §1, with “Table 2 Catalytic efficiencies of HTLV PRs on different substrates representing natural cleavage site sequences. Cleavage sites are labelled by asterisks within the sequences. Abbreviations: MA (matrix), CA (capsid), NC (nucleocapsid), and TF1 (trans-frame 1). | column: kcat/KM [mM^−1 s^−1] / HTLV-1 PR || Table” for “Table”, “column: Substrate;” for “column:”, “HTLV-1” for “HIV-1”

HTLV-2 PR = HTLV-2 PR (Human T-cell leukemia virus 2, UniProt P03363); assay: Protease activity assay with oligopeptide substrates (RP-HPLC), HTLV-2 PR; format: biochemical, human T-cell leukemia virus type 2; design: made in house; host or cells: E. coli BL21(DE3); details: pH 5.6, 37 °C
Text: as §2, §3

[1] = cleavage sites of viruses other than HTLV, longer incubation time (24 h) also applied
[2] = cleavage sites of viruses other than HTLV, retrieved from the literature, ref [28]
[3] = natural HTLV cleavage sites, substrate 0.05–1.10 mM, 2× buffer 0.5 M K3PO4, 4 M NaCl, 10 v/v% glycerol, 10 mM DTT, 0.5–4 h
[4] = natural HTLV-1 cleavage site substrates, previously reported values, ref [34]

HTLV-2 PR, sequence (P03363 447-571): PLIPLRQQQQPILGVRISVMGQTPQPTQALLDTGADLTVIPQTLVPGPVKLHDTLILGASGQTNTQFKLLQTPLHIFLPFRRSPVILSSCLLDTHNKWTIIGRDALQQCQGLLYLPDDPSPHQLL
HTLV-3 PR, sequence (Q4U0X6 431-553): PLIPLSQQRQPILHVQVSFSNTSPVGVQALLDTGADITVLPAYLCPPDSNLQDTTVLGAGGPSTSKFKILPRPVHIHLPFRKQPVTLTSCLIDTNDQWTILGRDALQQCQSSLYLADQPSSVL

Substance	kcat/KM (HIV-1 PR)	kcat/KM (HTLV-3 PR; [1])	kcat/KM (HTLV-1 PR; [2])	kcat/KM (HTLV-2 PR; [1])	kcat/KM (HTLV-3 PR; [3]) [M⁻¹ s⁻¹]	kcat/KM (HTLV-1 PR; [4])	kcat/KM (HTLV-2 PR; [3]) [M⁻¹ s⁻¹]
AKLVL*AQLSK [EIAV PR/RT, oligopeptide substrate AKLVL*AQLSK]	13400 M⁻¹ s⁻¹	not cleaved	not cleaved	not cleaved			
APQVL*PVMHP [HTLV-1 MA/CA, oligopeptide substrate APQVL*PVMHP]					32500 ± 6700	85.2 ± 26.1 ^1 mM^−1 s^−1	5500 ± 1000
CTLNF*PISP [HIV-1 PR/RT, oligopeptide substrate CTLNF*PISP]	24100 M⁻¹ s⁻¹	not cleaved	not cleaved	not cleaved			
DELIL*PVKRK [MMTV P3/P8, oligopeptide substrate DELIL*PVKRK]	1500 M⁻¹ s⁻¹	not cleaved	2.6 mM⁻¹ s⁻¹	not cleaved			
DPASIL*PVIP [HTLV-1 TF1/PR, oligopeptide substrate DPASIL*PVIP]					1200 ± 400	3.8 ± 0.6 ^1 mM^−1 s^−1	400 ± 100
DSKAF*LADTW [MMTV PP21/P3, oligopeptide substrate DSKAF*LADTW]	7500 M⁻¹ s⁻¹	not cleaved	not cleaved	not cleaved			
ERQAN*FLGKI [HIV-1 NC/P1, oligopeptide substrate ERQAN*FLGKI]	1000 M⁻¹ s⁻¹	not cleaved	not cleaved	not cleaved			
IAAAM*SSAIQ [RSV CA/P3, oligopeptide substrate IAAAM*SSAIQ]	not cleaved	not cleaved	not cleaved	not cleaved			
IQPLIM*AVVNR [RSV P3/NC, oligopeptide substrate IQPLIM*AVVNR]	318000 M⁻¹ s⁻¹	not cleaved	>100 mM⁻¹ s⁻¹	not cleaved			
KARVL*AEAMS [HIV-1 CA/P2, oligopeptide substrate KARVL*AEAMS]	90000 M⁻¹ s⁻¹	not cleaved	not cleaved	not cleaved			
KEEIM*LAYQG [EIAV RT/RH, oligopeptide substrate KEEIM*LAYQG]	18300 M⁻¹ s⁻¹	not cleaved	<0.01 mM⁻¹ s⁻¹	not cleaved			
KGPPVIL*PIQAP [HTLV-1 PR/P1, oligopeptide substrate KGPPVIL*PIQAP]					238400 ± 60100	288.3 ± 73.6 ^1 mM^−1 s^−1	20600 ± 2800
KQPAIL*VHTPG [BLV CA/NC, oligopeptide substrate KQPAIL*VHTPG]	not cleaved	not cleaved	not cleaved	not cleaved			
KTKVL*VVQPK [HTLV-1 CA/NC, oligopeptide substrate KTKVL*VVQPK]					30100 ± 15400	150.6 ± 15.1 ^1 mM^−1 s^−1	67200 ± 33400
LTFTF*PVVFMRR [MMTV N/CA, oligopeptide substrate LTFTF*PVVFMRR]	900 M⁻¹ s⁻¹	not cleaved	0.01 mM⁻¹ s⁻¹	not cleaved			
PKDIF*PVTET [MPMV P12/CA, oligopeptide substrate PKDIF*PVTET]	200 M⁻¹ s⁻¹	not cleaved	0.2 mM⁻¹ s⁻¹	not cleaved			
PPAIL*PIISE [BLV MA/CA, oligopeptide substrate PPAIL*PIISE]	300 M⁻¹ s⁻¹	not cleaved	164.5 mM⁻¹ s⁻¹	not cleaved			
PPAVS*LAMTM [RSV NC/PR, oligopeptide substrate PPAVS*LAMTM]	130 M⁻¹ s⁻¹	not cleaved	not cleaved	not cleaved			
PPMVG*VLDAP [BLV PR/P13, oligopeptide substrate PPMVG*VLDAP]	40 M⁻¹ s⁻¹	not cleaved	0.7 mM⁻¹ s⁻¹	not cleaved			
PPVGFAG*AMA [MMTV P8/N, oligopeptide substrate PPVGFAG*AMA]	<10 M⁻¹ s⁻¹	not cleaved	not cleaved	not cleaved			
PPYVG*SGLYP [RSV P2B/P10, oligopeptide substrate PPYVG*SGLYP]	not cleaved	not cleaved	not cleaved	not cleaved			
PRSSLY*PALTP [MuLV MA/P12, oligopeptide substrate PRSSLY*PALTP]	200 M⁻¹ s⁻¹	not cleaved	not cleaved	not cleaved			
PSEEY*PIMID [EIAV MA/CA, oligopeptide substrate PSEEY*PIMID]	15200 M⁻¹ s⁻¹	not cleaved	0.7 mM⁻¹ s⁻¹	not cleaved			
PVVAM*PVVIK [RSV P10/CA, oligopeptide substrate PVVAM*PVVIK]	not cleaved	not cleaved	0.1 mM⁻¹ s⁻¹	not cleaved			
RATVL*TVALH [RSV PR’/RT, oligopeptide substrate RATVL*TVALH]	1900 M⁻¹ s⁻¹	not cleaved	0.3 mM⁻¹ s⁻¹	not cleaved			
SDLVL*LSAEARR [MMTV MA/PP21, oligopeptide substrate SDLVL*LSAEARR]	6900 M⁻¹ s⁻¹	not cleaved	not cleaved	not cleaved			
TATIM*MQRGN [HIV-1 P2/NC, oligopeptide substrate TATIM*MQRGN]	74000 M⁻¹ s⁻¹	not cleaved	not cleaved	not cleaved			
TFQAY*PLREA [RSV RT/IN, oligopeptide substrate TFQAY*PLREA]	180 M⁻¹ s⁻¹	not cleaved	not cleaved	not cleaved			
TQTSLL*TLDDQ [MuLV NC/PR, oligopeptide substrate TQTSLL*TLDDQ]	not cleaved	not cleaved	not cleaved	not cleaved			
TSQAF*PLRAG [MuLV P12/CA, oligopeptide substrate TSQAF*PLRAG]	8700 M⁻¹ s⁻¹	not cleaved	not cleaved	not cleaved			
